Experimental data reported in patent publication US20200061054A1, “USE OF DIANHYDROGALACTITOL OR ANALOGS AND DERIVATIVES IN COMBINATION WITH A P53 MODULATOR OR A PARP INHIBITOR” (Del Mar Pharmaceuticals (BC) Ltd., priority 2017, published 2020).
“Also recorded” adds a separate entry of the source.

Key:
A2780 cells = test: 5-day MTT cytotoxic assay, combination of VAL-083 with non-DNA targeting agents (p53 modulators); assay type: cell-based; settings: for superadditivity / synergy in combination with VAL-083 (in words): A2780 (wild-type p53), 5-day MTT, agent combined with VAL-083, FIGS. 3-5
Text: Additive effect of [drug A+drug B]=FaA+(1−FaA)FaB
where FaA or FaB=fraction of cells affected (Fa) by drug A or B alone. Data, where appropriate, are provided as Mean±SE of N=3 or greater.

[1] = test system: p53-dependent response in A2780; test: Immunoblots 24 hr after drug exposure, p53-dependent response; assay type: cell-based; settings: A2780, in combination with VAL-083 (DAG), FIGS. 6A and 6B
Procedure: For Western blotting, cells were lysed in EBC buffer (50 mM Tris-HCl, pH 8.0, 120 mM NaCl, 1% NP-40, and 1 mM EDTA) supplemented with phosphatase inhibitor and protease inhibitor. Cellular proteins were separated by SDS-PAGE and transferred onto PVDF membrane. After incubation with blocking buffer for 1 h, the membranes were incubated with designated primary antibodies overnight at 4° C. Then, Membranes were washed three times for 10 min and incubated with horseradish peroxidase-conjugated anti-mouse or anti-rabbit antibodies for 1-2 h. Membranes were washed with TBST three times and developed with ECL system (Pierce) according to the manufacturer's instruction.

[2] = test system: Ovarian A2780 tumor cells; test: 5-day MTT cytotoxicity, VAL-083 and/or PARP inhibitor, control siRNA cells (no BRCA1 kd); assay type: cell-based; settings: A2780, in combination with dianhydrogalactitol (VAL-083)
Procedure: (§1) Cytotoxicity was determined by MTT assay using the standard 5-day drug exposure protocol.
(§2) Ovarian A2780 tumor cells were treated with control or BRCA1 siRNA in 6-well plates and 24 hr later were washed, typsinized and aliquoted to 96-well plates. […] After 5 days, the cells are processed for the MTT assay.

[3] = test system: A2780 cells with BRCA1 knockdown; test: 5-day MTT cytotoxicity, VAL-083 and/or PARP inhibitor, BRCA1-siRNA treated cells; settings: A2780, BRCA1 siRNA vs control siRNA, based on inspection of Fa data
Procedure: as §1, §2

[4] = test system: ovarian cancer cell lines (A2780, A2780 p53-/-, 2780CP, OVCAR10, HEY, OVCA-433); settings: wild type p53, p53 knocked out and mutant p53 lines; previously shown; cited from earlier work

In the case of `Nc1cc(C(F)(F)F)c(-c2cc(N3CCOCC3)nc(N3CCOCC3)n2)cn1` [BKM120], the “superadditivity / synergy in combination with VAL-083 (in words)” value (“superadditivity / synergy in combination” for short) (A2780 cells) is reported as “did not result in superadditive activity”.

With `Cc1ncc(Cl)cc1NCc1ccc(C(=O)N[C@@H](CC2CCCC2)C(=O)NC2CC2)s1` [GSK2830371, (S)-5-(((5-Chloro-2-methylpyridin-3-yl)amino)methyl)-N-(3-cyclopentyl-1-(cyclopropylamino)-1-oxopropan-2-yl)thiophene-2-carboxamide] the “superadditivity / synergy in combination” value (A2780 cells) was “substantial superadditivity and/or synergy” and the “upregulation of p53-dependent response (in words)” value [1] was “synergistic upregulation of p53-dependent response”.

With `Cc1sc2c(c1C)C(c1ccc(Cl)cc1)=N[C@@H](CC(=O)OC(C)(C)C)c1nnc(C)n1-2` [JQ1] the “superadditivity / synergy in combination” value (A2780 cells) was “did not result in superadditive activity”.

With `C=CCn1c(=O)c2cnc(Nc3ccc(N4CCN(C)CC4)cc3)nc2n1-c1cccc(C(C)(C)O)n1` [MK1775] the “superadditivity / synergy in combination” value (A2780 cells) was “did not result in superadditive activity”.

For `O=C(c1cc(Cc2n[nH]c(=O)c3ccccc23)ccc1F)N1CCN(C(=O)C2CC2)CC1` [Olaparib, olaparib], the “superadditivity of PARP inhibitor combined with VAL-083 (in words)” value [2] was “super-additivity”.

For `CNCc1ccc(-c2[nH]c3cc(F)cc4c3c2CCNC4=O)cc1` [Rucaparib, rucaparib], the “increase in cellular sensitivity by BRCA1 knockdown (kd)” value [3] was ~3.0 fold.

In the case of `O[C@H]([C@H](O)[C@@H]1CO1)[C@H]1CO1` [VAL-083, dianhydrogalactitol], the “activity in ovarian cancer cell lines (in words)” value [4] is given as “active in all cell lines tested”.

For `C[C@]1(c2nc3c(C(N)=O)cccc3[nH]2)CCCN1` [Veliparib, veliparib], the “superadditivity of PARP inhibitor combined with VAL-083 (in words)” value [2] was “not as effective”.

In the case of `COc1ccc(C2=N[C@@H](c3ccc(Cl)cc3)[C@@H](c3ccc(Cl)cc3)N2C(=O)N2CCNC(=O)C2)c(OC(C)C)c1` [nutlin-3a, 4-[[(4S,5R)-4,5-Bis(4-chlorophenyl)-2-(2-isopropoxy-4-methoxyphenyl)-4,5-dihydroimidazol-1-yl]carbonyl]piperazin-2-one], the “superadditivity / synergy in combination” value (A2780 cells) is reported as “substantial superadditivity and/or synergy; also recorded: augmented the activity of dianhydrogalactitol”, the combination index (A2780 cells; A2780, nutlin-3a with VAL-083, range over ED75-ED95 (Table 3)) is reported as 0.10-0.15 and the “upregulation of p53-dependent response (in words)” value [1] is reported as “synergistic upregulation of p53-dependent response”.
